Test results from patent US20080207711A1, “Method for treating an ID2-related disorder” (priority 2007, published 2008).

Test system: Pkd2−/− mice
Experiment: Treatment of pregnant female mice from a Pkd2+/- cross; newborn pups examined for kidney cysts, kidney size, edema and body size
Assay type: in vivo
Experimental: FIG. 1. […] (a) wild-type and (b) Pkd2^−/− kidneys without rosiglitazone treatment. (c) Pkd2^+/− and (d) Pkd2^−/− kidneys with rosiglitazone treatment.
Rosiglitazone, which may inhibit Id2 activity, alleviates the effects of Pkd loss of function mutations. This was shown by treating pregnant female mice from a cross between Pkd2^+/− mice with 80 mg/kg diet/day ciglitazone or rosiglitazone for ten days prior to delivery. […] Similarly, Id2 knockout mice were small. […] In contrast, ciglitazone treatment appeared to have no effect on newborn Pkd2^−/− mice.

[1] = mother treated 80 mg/kg diet/day for ten days prior to delivery

body size of newborn pups [1]	Compound	cyst formation in Pkd2−/− kidneys (FIG. 1, kidneys with vs without treatment)	edema in Pkd2−/− pup [1]	kidney size and morphology of Pkd2−/− pup (mother treated 80 mg/kg diet/day for ten days prior to delivery, compared to Pkd2−/− littermates of untreated mothers)	effect on newborn Pkd2−/− mice [1]
small body size in six of newborn pups	CN(CCOc1ccc(CC2SC(=O)NC2=O)cc1)c1ccccn1 (centres unmarked) [rosiglitazone, 5-[4-[2-(N-methyl-N-(2-pyridyl)amino)ethoxy]benzyl]thiazolidine-2,4-dione]	inhibits cyst formation	no edema	kidneys of normal size and morphology	–
–	CC1(COc2ccc(CC3SC(=O)NC3=O)cc2)CCCCC1 (centres unmarked) [ciglitazone, 5-[4-[(1 methylcyclohexyl)methoxy]benzyl]thiazolidine-2,4-dione]	–	–	–	no effect
